ChEMBL document CHEMBL1681651, “A broad spectrum anticancer nucleoside with selective toxicity against human colon cells in vitro” (2011)

Experiments:
Format in all cases: functional
[1] = test system: HOP-92; test: Growth inhibition of human HOP92 cells assessed as cell growth at 1 mM after 48 hrs by SRB assay; settings: HOP-92, 48 h, read-out: Activity
[2] = test system: UACC-257; test: Growth inhibition of human UACC257 cells assessed as cell growth at 0.1 uM after 48 hrs by SRB assay; settings: UACC-257, 48 h, read-out: Activity
[3] = test system: LOX IMVI; test: Growth inhibition of human LOXIMVI cells assessed as cell growth at 1 mM after 48 hrs by SRB assay; settings: read-out: Activity
[4] = test system: NCI-H322M; test: Growth inhibition of human NCI-H322M cells assessed as cell growth at 10 uM after 48 hrs by SRB assay; settings: read-out: Activity
[5] = test system: BT-549; test: Growth inhibition of human BT549 cells assessed as cell growth at 1 mM after 48 hrs by SRB assay; settings: BT-549, 48 h, read-out: Activity
[6] = test system: M14; test: Growth inhibition of human M14 cells assessed as cell growth at 10 uM after 48 hrs by SRB assay; settings: M14, 48 h, read-out: Activity
[7] = test system: NCI-H522; test: Growth inhibition of human NCI-H522 cells after 48 hrs by […] growth inhibition assay; settings: NCI-H522, 48 h
[8] = test system: OVCAR-8; test: Growth inhibition of human OVCAR8 cells assessed as cell growth at 1 uM after 48 hrs by SRB assay; settings: OVCAR-8, 48 h, read-out: Activity
[9] = test system: SK-MEL-2; test: Growth inhibition of human SK-MEL-2 cells assessed as cell growth at 0.1 uM after 48 hrs by SRB assay; settings: SK-MEL-2, 48 h, read-out: Activity
[10] = test system: SK-MEL-5; test: Growth inhibition of human SK-MEL-5 cells assessed as cell growth at 100 uM after 48 hrs by SRB assay; settings: SK-MEL-5, 48 h, read-out: Activity
[11] = test system: Malme-3M; test: Growth inhibition of human MALME-3M cells after 48 hrs by […] growth inhibition assay
[12] = test system: NCI-H23; test: Growth inhibition of human NCI-H23 cells after 48 hrs by […] growth inhibition assay; settings: NCI-H23, 48 h
[13] = test system: Malme-3M; test: Growth inhibition of human MALME-3M cells assessed as cell growth at 100 uM after 48 hrs by SRB assay; settings: read-out: Activity
[14] = test system: SK-OV-3; test: Growth inhibition of human SKOV3 cells assessed as cell growth at 1 mM after 48 hrs by SRB assay; settings: SK-OV-3, 48 h, read-out: Activity
[15] = test system: HCT-15; test: Growth inhibition of human HCT15 cells assessed as cell growth at 10 uM after 48 hrs by SRB assay; settings: HCT-15, 48 h, read-out: Activity
[16] = test system: HCT-116; test: Growth inhibition of human HCT116 cells assessed as cell growth at 0.1 uM after 48 hrs by SRB assay; settings: HCT-116, 48 h, read-out: Activity
[17] = test system: BT-549; test: Growth inhibition of human BT549 cells assessed as cell growth at 10 uM after 48 hrs by SRB assay; settings: BT-549, 48 h, read-out: Activity
[18] = test system: NCI-H226; test: Growth inhibition of human NCI-H226 cells after 48 hrs by […] growth inhibition assay; settings: NCI-H226, 48 h
[19] = test system: DU-145; test: Growth inhibition of human DU145 cells assessed as cell growth at 1 mM after 48 hrs by SRB assay; settings: DU-145, 48 h, read-out: Activity
[20] = test system: SK-MEL-2; test: Growth inhibition of human SK-MEL-2 cells assessed as cell growth at 1 mM after 48 hrs by SRB assay; settings: SK-MEL-2, 48 h, read-out: Activity
[21] = test system: CCRF-CEM; test: Growth inhibition of human CCRF-CEM cells assessed as cell growth at 0.1 uM after 48 hrs by SRB assay; settings: read-out: Activity
[22] = test system: SF-295; test: Growth inhibition of human SF295 cells assessed as cell growth at 10 uM after 48 hrs by SRB assay; settings: SF-295, 48 h, read-out: Activity
[23] = test system: KM12; test: Growth inhibition of human KM12 cells assessed as cell growth at 100 uM after 48 hrs by SRB assay; settings: KM12, 48 h, read-out: Activity
[24] = test system: U-251; test: Growth inhibition of human U251 cells assessed as cell growth at 1 uM after 48 hrs by SRB assay; settings: U-251, 48 h, read-out: Activity
[25] = test system: M14; test: Growth inhibition of human M14 cells after 48 hrs by […] growth inhibition assay; settings: M14, 48 h
[26] = test system: MDA-MB-435; test: Growth inhibition of human MDA-MB-435 cells assessed as cell growth at 1 mM after 48 hrs by SRB assay; settings: MDA-MB-435, 48 h, read-out: Activity
[27] = Growth inhibition of human […] cells after 48 hrs by […] growth inhibition assay
[28] = test system: RXF 393; test: Growth inhibition of human RXF393 cells assessed as cell growth at 10 uM after 48 hrs by SRB assay; settings: RXF 393, 48 h, read-out: Activity
[29] = test system: NCI-H460; test: Growth inhibition of human NCI-H460 cells assessed as cell growth at 0.1 uM after 48 hrs by SRB assay; settings: NCI-H460, 48 h, read-out: Activity
[30] = test system: T47D; test: Growth inhibition of human T47D cells assessed as cell growth at 0.1 uM after 48 hrs by SRB assay; settings: read-out: Activity
[31] = test system: 786-0; test: Growth inhibition of human 786-0 cells assessed as cell growth at 100 uM after 48 hrs by SRB assay; settings: 786-0, 48 h, read-out: Activity
[32] = test system: COLO 205; test: Growth inhibition of human COLO205 cells assessed as cell growth at 100 uM after 48 hrs by SRB assay; settings: COLO 205, 48 h, read-out: Activity
[33] = test system: SNB-75; test: Growth inhibition of human SNB75 cells assessed as cell growth at 1 uM after 48 hrs by SRB assay; settings: SNB-75, 48 h, read-out: Activity
[34] = read-out: LC50 (the source's name)
[35] = read-out: pLC50 (the source's name) (converted)

## CNC(=O)NC[C@H]1O[C@@H](n2cnc3c(NC(=O)Nc4ccccc4)ncnc32)[C@H](O[Si](C)(C)C(C)(C)C)[C@@H]1CC(=O)N(C)OC
[1]
  growth at 1000 µM: -43%
[2]
  growth at 0.1 µM: 95%
[3]
  growth at 1000 µM: 35%
[4]
  growth at 10 µM: 102%
[5]
  growth at 1000 µM: 26%
[6]
  growth at 10 µM: 91%
[7]; read-out: GI50
  GI50: 11.1 µM
[7]; [34]
  CC50: > 100 µM
[7]; read-out: TGI
  TGI: > 100 µM
[7]; read-out: pGI50 (converted)
  GI50: 11 µM
[7]; [35]
  CC50: > 100 µM
[7]; read-out: pTGI (converted)
  TGI: > 100 µM
[8]
  growth at 1 µM: 106%
[9]
  growth at 0.1 µM: 85%
[10]
  growth at 100 µM: 38%
[11]; read-out: GI50
  GI50: 11.4 µM
[11]; read-out: LC50
  LC50 (concentration killing 50% of cells): > 100 µM
[11]; read-out: TGI
  TGI: > 100 µM
[11]; read-out: pGI50 (converted)
  GI50: 11.5 µM
[11]; read-out: pLC50 (converted)
  LC50 (concentration killing 50% of cells): > 100 µM
[11]; read-out: pTGI (converted)
  TGI: > 100 µM
[12]; read-out: GI50
  GI50: 57.2 µM
[12]; [34]
  CC50: > 100 µM
[12]; read-out: TGI
  TGI: > 100 µM
[12]; read-out: pGI50 (converted)
  GI50: 57.5 µM
[12]; [35]
  CC50: > 100 µM
[12]; read-out: pTGI (converted)
  TGI: > 100 µM
[13]
  growth at 100 µM: 52%
[14]
  growth at 1000 µM: 38%
[15]
  growth at 10 µM: 93%
[16]
  growth at 0.1 µM: 93%
[17]
  growth at 10 µM: 96%
[18]; read-out: GI50
  GI50: 41.9 µM
[18]; [34]
  CC50: > 100 µM
[18]; read-out: TGI
  TGI: > 100 µM
[18]; read-out: pGI50 (converted)
  GI50: 41.7 µM
[18]; [35]
  CC50: > 100 µM
[18]; read-out: pTGI (converted)
  TGI: > 100 µM
[19]
  growth at 1000 µM: 16%
[20]
  growth at 1000 µM: -5%
[21]
  growth at 0.1 µM: 101%
[22]
  growth at 10 µM: 98%
[23]
  growth at 100 µM: 62%
[24]
  growth at 1 µM: 101%
[25]; read-out: GI50
  GI50: 15.2 µM
[25]; [34]
  CC50: > 100 µM
[25]; read-out: TGI
  TGI: > 100 µM
[25]; read-out: pGI50 (converted)
  GI50: 15.1 µM
[25]; [35]
  CC50: > 100 µM
[25]; read-out: pTGI (converted)
  TGI: > 100 µM
[26]
  growth at 1000 µM: 36%
[27]; read-out: GI50
  GI50: 1.58 µM
[27]; [34]
  CC50: > 100 µM
[27]; read-out: TGI
  TGI: 5.4 µM
[27]; read-out: pGI50 (converted)
  GI50: 1.58 µM
[27]; [35]
  CC50: > 100 µM
[27]; read-out: pTGI (converted)
  TGI: 5.37 µM
[28]
  growth at 10 µM: 98%
[29]
  growth at 0.1 µM: 96%
[30]
  growth at 0.1 µM: 90%
[31]
  growth at 100 µM: 48%
[32]
  growth at 100 µM: 55%
[33]
  growth at 1 µM: 95%

## CCOC(=O)C[C@H]1[C@@H](O[Si](C)(C)C(C)(C)C)[C@H](n2cnc3c(NC(=O)Nc4ccccc4)ncnc32)O[C@@H]1CNC(=O)NC
[1]
  growth at 1000 µM: -61%
[2]
  growth at 0.1 µM: 102%
[3]
  growth at 1000 µM: 4%
[4]
  growth at 10 µM: 95%
[5]
  growth at 1000 µM: 51%
[6]
  growth at 10 µM: 81%
[7]; read-out: GI50
  GI50: 4.36 µM
[7]; [34]
  CC50: > 100 µM
[7]; read-out: TGI
  TGI: 85.7 µM
[7]; read-out: pGI50 (converted)
  GI50: 4.37 µM
[7]; [35]
  CC50: > 100 µM
[7]; read-out: pTGI (converted)
  TGI: 85.1 µM
[8]
  growth at 1 µM: 100%
[9]
  growth at 0.1 µM: 102%
[10]
  growth at 100 µM: 28%
[11]; read-out: GI50
  GI50: 10.3 µM
[11]; read-out: LC50
  LC50 (concentration killing 50% of cells): > 100 µM
[11]; read-out: TGI
  TGI: > 100 µM
[11]; read-out: pGI50 (converted)
  GI50: 10.2 µM
[11]; read-out: pLC50 (converted)
  LC50 (concentration killing 50% of cells): > 100 µM
[11]; read-out: pTGI (converted)
  TGI: > 100 µM
[12]; read-out: GI50
  GI50: 33.3 µM
[12]; [34]
  CC50: > 100 µM
[12]; read-out: TGI
  TGI: > 100 µM
[12]; read-out: pGI50 (converted)
  GI50: 33.1 µM
[12]; [35]
  CC50: > 100 µM
[12]; read-out: pTGI (converted)
  TGI: > 100 µM
[13]
  growth at 100 µM: 50%
[14]
  growth at 1000 µM: 16%
[15]
  growth at 10 µM: 94%
[16]
  growth at 0.1 µM: 93%
[17]
  growth at 10 µM: 110%
[18]; read-out: GI50
  GI50: > 100 µM
[18]; [34]
  CC50: > 100 µM
[18]; read-out: TGI
  TGI: > 100 µM
[18]; read-out: pGI50 (converted)
  GI50: > 100 µM
[18]; [35]
  CC50: > 100 µM
[18]; read-out: pTGI (converted)
  TGI: > 100 µM
[19]
  growth at 1000 µM: -59%
[20]
  growth at 1000 µM: -30%
[21]
  growth at 0.1 µM: 96%
[22]
  growth at 10 µM: 88%
[23]
  growth at 100 µM: 13%
[24]
  growth at 1 µM: 95%
[25]; read-out: GI50
  GI50: 2.51 µM
[25]; [34]
  CC50: 78.6 µM
[25]; read-out: TGI
  TGI: 11.6 µM
[25]; read-out: pGI50 (converted)
  GI50: 2.51 µM
[25]; [35]
  CC50: 79.4 µM
[25]; read-out: pTGI (converted)
  TGI: 11.5 µM
[26]
  growth at 1000 µM: 8%
[27]; read-out: GI50
  GI50: 1.09 µM
[27]; [34]
  CC50: 59 µM
[27]; read-out: TGI
  TGI: 4.57 µM
[27]; read-out: pGI50 (converted)
  GI50: 1.1 µM
[27]; [35]
  CC50: 58.9 µM
[27]; read-out: pTGI (converted)
  TGI: 4.57 µM
[28]
  growth at 10 µM: 92%
[29]
  growth at 0.1 µM: 102%
[30]
  growth at 0.1 µM: 91%
[31]
  growth at 100 µM: -34%
[32]
  growth at 100 µM: 20%
[33]
  growth at 1 µM: 90%
